Measured values reported in PubChem BioAssay (NCI).
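Values below derive from 48-hour exposures of cells grown in 96-well plates, with endpoints linearly interpolated between the two concentrations bracketing the appropriate inhibition level. TGI: total growth inhibition.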

Tests used:
Test in all cases: DTP human tumour cell line panel, 48 h
A498 renal = system: A498 renal
A549 NSCLC = system: A549 NSCLC
ACHN renal = system: ACHN renal
BT-549 breast = system: BT-549 breast
CAKI-1 renal = system: CAKI-1 renal
CCRF-CEM leukemia = system: CCRF-CEM leukemia
COLO 205 colon = system: COLO 205 colon
DU-145 prostate = system: DU-145 prostate
EKVX NSCLC = system: EKVX NSCLC
HCC-2998 colon = system: HCC-2998 colon
HL-60(TB) leukemia = system: HL-60(TB) leukemia
HOP-62 NSCLC = system: HOP-62 NSCLC
HOP-92 NSCLC = system: HOP-92 NSCLC
HS 578T breast = system: HS 578T breast
HT29 colon = system: HT29 colon
IGROV1 ovarian = system: IGROV1 ovarian
K-562 leukemia = system: K-562 leukemia
KM12 colon = system: KM12 colon
LOX IMVI melanoma = system: LOX IMVI melanoma
M14 melanoma = system: M14 melanoma
MALME-3M melanoma = system: MALME-3M melanoma
MCF7 breast = system: MCF7 breast
MDA-MB-231 breast = system: MDA-MB-231 breast
MDA-MB-435 = system: MDA-MB-435
MDA-N = system: MDA-N
MOLT-4 leukemia = system: MOLT-4 leukemia
NCI-H226 lung = system: NCI-H226 lung
NCI-H23 lung = system: NCI-H23 lung
NCI-H460 lung = system: NCI-H460 lung
NCI-H522 lung = system: NCI-H522 lung
NCI/ADR-RES ovarian = system: NCI/ADR-RES ovarian
OVCAR-3 ovarian = system: OVCAR-3 ovarian
OVCAR-4 ovarian = system: OVCAR-4 ovarian
OVCAR-5 ovarian = system: OVCAR-5 ovarian
OVCAR-8 ovarian = system: OVCAR-8 ovarian
PC-3 prostate = system: PC-3 prostate
RPMI-8226 leukemia = system: RPMI-8226 leukemia
RXF 393 renal = system: RXF 393 renal
SF-268 CNS = system: SF-268 CNS
SF-539 CNS = system: SF-539 CNS
SK-MEL-2 melanoma = system: SK-MEL-2 melanoma
SK-MEL-28 melanoma = system: SK-MEL-28 melanoma
SK-MEL-5 melanoma = system: SK-MEL-5 melanoma
SN12C renal = system: SN12C renal
SNB-19 CNS = system: SNB-19 CNS
SNB-75 CNS = system: SNB-75 CNS
SR leukemia = system: SR leukemia
SW-620 colon = system: SW-620 colon
T-47D breast = system: T-47D breast
TK-10 renal = system: TK-10 renal
U251 CNS = system: U251 CNS
UACC-257 melanoma = system: UACC-257 melanoma
UO-31 renal = system: UO-31 renal
786-0 renal = system: 786-0 renal
HCT-116 colon = system: HCT-116 colon
HCT-15 colon = system: HCT-15 colon
SF-295 CNS = system: SF-295 CNS
SK-OV-3 ovarian = system: SK-OV-3 ovarian
UACC-62 melanoma = system: UACC-62 melanoma

Compound: C=CCn1c(=O)ccn(COCCO)c1=O
- TGI (A498 renal): > 100 µM
- TGI (A549 NSCLC): > 100 µM
- TGI (ACHN renal): > 100 µM
- TGI (BT-549 breast): > 100 µM
- TGI (CAKI-1 renal): > 100 µM
- TGI (CCRF-CEM leukemia): > 100 µM
- TGI (COLO 205 colon): > 100 µM
- TGI (DU-145 prostate): > 100 µM
- TGI (EKVX NSCLC): > 100 µM
- TGI (HCC-2998 colon): > 100 µM
- TGI (HL-60(TB) leukemia): > 100 µM
- TGI (HOP-62 NSCLC): > 100 µM
- TGI (HOP-92 NSCLC): > 100 µM
- TGI (HS 578T breast): > 100 µM
- TGI (HT29 colon): > 100 µM
- TGI (IGROV1 ovarian): > 100 µM
- TGI (K-562 leukemia): > 100 µM
- TGI (KM12 colon): > 100 µM
- TGI (LOX IMVI melanoma): > 100 µM
- TGI (M14 melanoma): > 100 µM
- TGI (MALME-3M melanoma): > 100 µM
- TGI (MCF7 breast): > 100 µM
- TGI (MDA-MB-231 breast): > 100 µM
- TGI (MDA-MB-435): > 100 µM
- TGI (MDA-N): > 100 µM
- TGI (MOLT-4 leukemia): > 100 µM
- TGI (NCI-H226 lung): > 100 µM
- TGI (NCI-H23 lung): > 100 µM
- TGI (NCI-H460 lung): > 100 µM
- TGI (NCI-H522 lung): > 100 µM
- TGI (NCI/ADR-RES ovarian): > 100 µM
- TGI (OVCAR-3 ovarian): > 100 µM
- TGI (OVCAR-4 ovarian): > 100 µM
- TGI (OVCAR-5 ovarian): > 100 µM
- TGI (OVCAR-8 ovarian): > 100 µM
- TGI (PC-3 prostate): > 100 µM
- TGI (RPMI-8226 leukemia): > 100 µM
- TGI (RXF 393 renal): > 100 µM
- TGI (SF-268 CNS): > 100 µM
- TGI (SF-539 CNS): > 100 µM
- TGI (SK-MEL-2 melanoma): > 100 µM
- TGI (SK-MEL-28 melanoma): > 100 µM
- TGI (SK-MEL-5 melanoma): > 100 µM
- TGI (SN12C renal): > 100 µM
- TGI (SNB-19 CNS): > 100 µM
- TGI (SNB-75 CNS): > 100 µM
- TGI (SR leukemia): > 100 µM
- TGI (SW-620 colon): > 100 µM
- TGI (T-47D breast): > 100 µM
- TGI (TK-10 renal): > 100 µM
- TGI (U251 CNS): > 100 µM
- TGI (UACC-257 melanoma): > 100 µM
- TGI (UO-31 renal): > 100 µM

Compound: N#CC(C#N)=CNC(=S)c1ccncc1
- TGI (786-0 renal): > 100 µM
- TGI (A498 renal): > 100 µM
- TGI (A549 NSCLC): > 100 µM
- TGI (ACHN renal): > 100 µM
- TGI (BT-549 breast): 80.3 µM
- TGI (CAKI-1 renal): > 100 µM
- TGI (CCRF-CEM leukemia): > 100 µM
- TGI (COLO 205 colon): > 100 µM
- TGI (DU-145 prostate): > 100 µM
- TGI (EKVX NSCLC): > 100 µM
- TGI (HCC-2998 colon): > 100 µM
- TGI (HCT-116 colon): > 100 µM
- TGI (HCT-15 colon): > 100 µM
- TGI (HL-60(TB) leukemia): > 100 µM
- TGI (HOP-62 NSCLC): > 100 µM
- TGI (HS 578T breast): > 100 µM
- TGI (HT29 colon): > 100 µM
- TGI (IGROV1 ovarian): > 100 µM
- TGI (K-562 leukemia): > 100 µM
- TGI (KM12 colon): > 100 µM
- TGI (LOX IMVI melanoma): > 100 µM
- TGI (M14 melanoma): > 100 µM
- TGI (MALME-3M melanoma): > 100 µM
- TGI (MCF7 breast): > 100 µM
- TGI (MDA-MB-231 breast): > 100 µM
- TGI (MDA-MB-435): > 100 µM
- TGI (MDA-N): > 100 µM
- TGI (MOLT-4 leukemia): > 100 µM
- TGI (NCI-H226 lung): > 100 µM
- TGI (NCI-H23 lung): > 100 µM
- TGI (NCI-H460 lung): > 100 µM
- TGI (NCI-H522 lung): > 100 µM
- TGI (NCI/ADR-RES ovarian): > 100 µM
- TGI (OVCAR-3 ovarian): 1.36 µM
- TGI (OVCAR-4 ovarian): > 100 µM
- TGI (OVCAR-5 ovarian): > 100 µM
- TGI (OVCAR-8 ovarian): > 100 µM
- TGI (PC-3 prostate): > 100 µM
- TGI (RPMI-8226 leukemia): > 100 µM
- TGI (RXF 393 renal): > 100 µM
- TGI (SF-268 CNS): > 100 µM
- TGI (SF-295 CNS): > 100 µM
- TGI (SF-539 CNS): 68.4 µM
- TGI (SK-MEL-2 melanoma): > 100 µM
- TGI (SK-MEL-28 melanoma): > 100 µM
- TGI (SK-MEL-5 melanoma): > 100 µM
- TGI (SK-OV-3 ovarian): > 100 µM
- TGI (SN12C renal): > 100 µM
- TGI (SNB-19 CNS): > 100 µM
- TGI (SNB-75 CNS): > 100 µM
- TGI (SR leukemia): > 100 µM
- TGI (SW-620 colon): > 100 µM
- TGI (T-47D breast): > 100 µM
- TGI (U251 CNS): > 100 µM
- TGI (UACC-257 melanoma): > 100 µM
- TGI (UACC-62 melanoma): > 100 µM
- TGI (UO-31 renal): 52.8 µM
